Data on five molecules can be found in patent publication US20260166159A1, “KRAS G12D DEGRADATION AGENT, AND PREPARATION METHOD AND USE THEREFOR” (LEADINGTAC PHARMACEUTICAL (SHAOXING) CO., LTD., priority 2022, published 2026).

Structures are written as SMILES.

Holding throughout (format): cell-based
One assay has as its target T1, KRAS-G12D (Homo sapiens, UniProt P01116, G12D).
T1 construct: endogenous in cells; host or cells: A-427 (ATCC), AGS, AsPc-1, Panc 04.03
In words: KRAS-G12D degradation assay (Western Blot), A-427 cells. The following applies: A427 cells, 24 h, class symbols; for Dmax: A-427. In short, it runs like this:
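Western blotting of lysates (5 μg protein) quantified KRAS against a β-actin reference after 24 h exposure to compound at final 0.03–3000 nM in 0.25% DMSO. Cells were A-427, AGS, AsPc-1 or Panc 04.03, all KRAS G12D, at 5×10^5/well. Degradation versus control yielded DC50 and Dmax.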

Assay [1] has as its system KRAS G12D mutant human lung cancer cell A427. In words: 3D cell proliferation inhibition assay, A427. As to conditions: A-427, 168 h, A427, 7 days, CTG, class symbols. In a few lines:
(§1)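 3D growth, low-adsorption plate; 5×10^2 cells/well; cpd 10000–0.026 nM final, 0.2% DMSO; 7 d, 37 °C/5% CO2. CTG luminescence, 60 min RT. % inhibition vs DMSO (cells) and medium blanks; IC50 by nonlinear fit.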

For assay [2], the system named is KRAS G12D mutant human gastric cancer cell AGS. The experiment in a line: 3D cell proliferation inhibition assay, AGS. As to conditions: 168 h, 7 days, CTG, class symbols. In a few lines:
as §1

T1 sequence (P01116 1-188 isoform P01116-2 G12D): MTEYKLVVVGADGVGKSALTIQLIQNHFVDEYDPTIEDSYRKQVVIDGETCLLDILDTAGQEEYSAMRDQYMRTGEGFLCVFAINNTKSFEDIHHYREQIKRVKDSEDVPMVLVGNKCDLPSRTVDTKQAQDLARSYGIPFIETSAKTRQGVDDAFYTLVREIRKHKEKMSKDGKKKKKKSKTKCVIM

On to `Cc1ccc2[nH]ncc2c1-c1ncc2c(N3CC4CCC(C3)N4)nc(OCC3(CN4CCN(CC5CCC6(CC5)CCN(C(=O)c5ccc(Cl)c(N7CCC(=O)NC7=O)c5)CC6)CC4)CC3)nc2c1F` [Example 16, 1-(5-(9-((4-((1-(((4-(3,8-diazabicyclo[3.2.1]octan-3-yl)-8-fluoro-7-(5-methyl-1H-indazol-4-yl)pyrido[4,3-d]pyrimidin-2-yl)oxy)methyl)cyclopropyl)methyl)piperazin-1-yl)methyl)-3-azaspiro[5.5]undecane-3-carbonyl)-2-chlorophenyl)dihydropyrimidine-2,4(1H,3H)-dione], for which, at KRAS-G12D, the DC50 was 1 to 10 µM and the Dmax was 30 to 50%. This molecule displayed an IC50 in assay [1] of 0.1 to 0.5 µM. Also, in assay [2], the IC50 was 1 to 10 µM.

At KRAS-G12D, `C#Cc1c(F)ccc2cc(O)cc(-c3ccc4c(N5CC6CCC(C5)N6)nc(OCC5(CN6CCN(CC7CCC8(CC7)CCN(C(=O)c7ccc(C)c(N9CCC(=O)NC9=O)c7)CC8)CC6)CC5)nc4c3F)c12` [Example 42, 1-(5-(9-((4-((1-(((4-(3,8-diazabicyclo[3.2.1]octan-3-yl)-7-(8-ethynyl-7-fluoro-3-hydroxynaphthalen-1-yl)-8-fluoroquinazolin-2-yl)oxy)methyl)cyclopropyl)methyl)piperazin-1-yl)methyl)-3-azaspiro[5.5]undecane-3-carbonyl)-2-methylphenyl)dihydropyrimidine-2,4(1H,3H)-dione] registered a DC50 of no more than 0.05 µM and a maximal degradation (Dmax) of 80 to 100%. In assay [1], the IC50 was no more than 0.05 µM. The molecule further returned an IC50 in assay [2] of no more than 0.05 µM.

On KRAS-G12D, `CCc1cccc2cc(O)cc(-c3ncc4c(N5CC6CCC(C5)N6)nc(OCC5(CN6CCN(CC7CCC8(CC7)CCN(C(=O)c7ccc(OC)c(N9CCC(=O)NC9=O)c7)CC8)CC6)CC5)nc4c3F)c12` [Example 20, 1-(5-(9-((4-((1-(((4-(3,8-diazabicyclo[3.2.1]octan-3-yl)-7-(8-ethyl-3-hydroxynaphthalen-1-yl)-8-fluoropyrido[4,3-d]pyrimidin-2-yl)oxy)methyl)cyclopropyl)methyl)piperazin-1-yl)methyl)-3-azaspiro[5.5]undecane-3-carbonyl)-2-methoxyphenyl)dihydropyrimidine-2,4(1H,3H)-dione] yielded a DC50 of no more than 0.05 µM and a Dmax of 80 to 100%. In assay [1], this molecule displayed an IC50 of no more than 0.05 µM. In addition, in assay [2], the IC50 is no more than 0.05 µM.

At KRAS-G12D, `C#Cc1c(F)ccc2cc(O)cc(-c3ncc4c(N5CC6CCC(C5)N6)nc(OCC(C)(C)CN5CCN(CC6CCC7(CC6)CCN(C(=O)c6ccc(OC)c(N8CCC(=O)NC8=O)c6)CC7)CC5)nc4c3F)c12` [Example 26, 1-(5-(9-((4-(3-((4-(3,8-diazabicyclo[3.2.1]octan-3-yl)-7-(8-ethynyl-7-fluoro-3-hydroxynaphthalen-1-yl)-8-fluoropyrido[4,3-d]pyrimidin-2-yl)oxy)-2,2-dimethylpropyl)piperazin-1-yl)methyl)-3-azaspiro[5.5]undecane-3-carbonyl)-2-methoxyphenyl)dihydropyrimidine-2,4(1H,3H)-dione] gave a DC50 of 1 to 10 µM and a Dmax of 30 to 50%. In assay [1], this molecule yielded an IC50 of 0.05 to 0.1 µM. The IC50 in assay [2] lay within 0.05 to 0.1 µM.

On KRAS-G12D, `C#Cc1c(F)ccc2cc(O)cc(-c3ncc4c(N5CC6CCC(C5)N6)nc(OCC5(CN6CCN(CCC7CCC8(CC7)CCN(C(=O)c7ccc(Cl)c(N9CCC(=O)NC9=O)c7)CC8)CC6)CC5)nc4c3F)c12` [Example 18, 1-(5-(9-(2-(4-((1-(((4-(3,8-diazabicyclo[3.2.1]octan-3-yl)-7-(8-ethynyl-7-fluoro-3-hydroxynaphthalen-1-yl)-8-fluoropyrido[4,3-d]pyrimidin-2-yl)oxy)methyl)cyclopropyl)methyl)piperazin-1-yl)ethyl)-3-azaspiro[5.5]undecane-3-carbonyl)-2-chlorophenyl)dihydropyrimidine-2,4(1H,3H)-dione] yielded a DC50 of no more than 0.05 µM and a Dmax of 80 to 100%. Moreover, the IC50 in assay [1] was no more than 0.05 µM. This molecule had an IC50 in assay [2] of no more than 0.05 µM.
